What is called IC50 is the midpoint of a concentration-inhibition curve.

This passage reports IC50 and Activity results from ChEMBL document CHEMBL2331136, “Apoptosis-inducing activity of the actin-depolymerizing agent aplyronine A and its side-chain derivatives” (Bioorg Med Chem Lett, 2013).

Test [1] in a line: Induction of F-actin (unknown origin) polymerization after 1 hr by spectrofluorometric analysis. On the set-up: species or system Homo sapiens.
For test [2], the system named is HL-60. Kind of test: Cytotoxicity against human HL60 cells after 72 hrs by MTT assay. Conditions: HL-60, 72 h. It is filed as functional, cell-based. In general terms: Tetrazolium assays rely on reduction of a dye to a coloured formazan, in cell work by metabolically active cells.
Test [3] deals with HL-60. Kind of test: Induction of apoptosis in human HL60 cells assessed as nuclear shrinkage and fragmentation at 30 uM after 12 hrs using rhodamine-phalloidin staining by fluorescence microscopy. It is filed as functional, cell-based.
Test [4] concerns HL-60. Nature of the test: Induction of apoptosis in human HL60 cells assessed as disruption and aggregation of actin filaments at 30 uM after 12 hrs using rhodamine-phalloidin staining by fluorescence microscopy. Format: functional, cell-based.
The subject of test [5] is HL-60. Nature of the test: Induction of apoptosis in human HL60 cells assessed as activation of caspase-3 at 10 to 30 uM after 18 hrs by spectrophotometric analysis. It is filed as functional, cell-based.
The subject of test [6] is HL-60. Kind of test: Induction of apoptosis in human HL60 cells assessed as DNA fragmentation after 24 hrs by agarose gel electrophoresis. It is filed as functional, cell-based.
The test system of test [7] is HL-60. Kind of test: Cytotoxicity against human HL60 cells after 24 hrs by trypan blue dye exclusion assay. Format: functional, cell-based.
For test [8], the system named is HL-60. Kind of test: Cytotoxicity against human HL60 cells after 24 hrs by trypan blue dye exclusion assay in presence of Z-VAD-FMK. It is filed as functional, cell-based.
Test [9] concerns HL-60. Nature of the test: Induction of apoptosis in human HL60 cells assessed as nuclear shrinkage and fragmentation at 30 uM after 12 hrs using rhodamine-phalloidin staining by fluorescence microscopy in presence of Z-VAD-FMK. Format: functional, cell-based.
Test [10] relates to HL-60. Nature of the test: Induction of apoptosis in human HL60 cells assessed as nuclear shrinkage and fragmentation at 1 nM after 12 hrs using rhodamine-phalloidin staining by fluorescence microscopy. Format: functional, cell-based.
In test [11] the test system is HL-60. Nature of the test: Induction of apoptosis in human HL60 cells assessed as disruption and aggregation of actin filaments at 1 nM after 12 hrs using rhodamine-phalloidin staining by fluorescence microscopy. It is filed as functional, cell-based.
Test [12] relates to HL-60. Nature of the test: Induction of apoptosis in human HL60 cells assessed as activation of caspase-3 at 0.1 to 1 nM after 18 hrs by spectrophotometric analysis. It is filed as functional, cell-based.
For test [13], the system named is HeLa S3. Nature of the test: Induction of apoptosis in human HeLaS3 cells assessed as DNA fragmentation after 24 hrs by agarose gel electrophoresis. It is filed as functional, cell-based.
Test [14] concerns HeLa S3. Nature of the test: Cytotoxicity against human HeLaS3 cells after 48 hrs by trypan blue dye exclusion assay in presence of Z-VAD-FMK. It is filed as functional, cell-based.
Test [15] concerns HeLa S3. Kind of test: Cytotoxicity against human HeLaS3 cells after 48 hrs by trypan blue dye exclusion assay. Format: functional, cell-based.
Test [16] in a line: Cytotoxicity against human HeLaS3 cells after 72 hrs by MTT assay. Conditions: HeLa S3, 72 h. Format: functional, cell-based.
Test [17] relates to HL-60. Nature of the test: Induction of apoptosis in human HL60 cells assessed as nuclear shrinkage and fragmentation at 1 nM after 12 hrs using rhodamine-phalloidin staining by fluorescence microscopy in presence of Z-VAD-FMK. It is filed as functional, cell-based.
In test [18] the test system is HL-60. Nature of the test: Induction of apoptosis in human HL60 cells assessed as disruption and aggregation of actin filaments at 0.1 nM after 12 hrs using rhodamine-phalloidin staining by fluorescence microscopy. It is filed as functional, cell-based.

Activity calls are given as the source filed them. No cut-off for these calls is given here.

As for `C/C=C/[C@@H](OC(=O)[C@H](C)N(C)C)[C@H](C)[C@H](OC(C)=O)[C@H](C)/C=C/N(C)C=O`, the IC50 in test [1] amounted to 210 µM; in the test with HL-60 [2], 240 µM.

`CC(=O)O[C@@H]([C@@H](C)[C@@H](/C=C/CCc1ccccc1)OC(=O)[C@H](C)N(C)C)[C@H](C)/C=C/N(C)C=O`: the IC50 stood at 85 µM in test [1] and 53 µM in the test with HL-60 [2].

Turning to `CC(=O)O[C@@H]([C@@H](C)[C@@H](/C=C/c1ccccc1)OC(=O)[C@H](C)N(C)C)[C@H](C)/C=C/N(C)C=O`, the IC50 is 47 µM in [1] and 27.5 µM in the test with HL-60 [2].

For `CC(=O)O[C@@H]([C@@H](C)[C@@H](/C=C/CCCCc1ccccc1)OC(=O)[C@H](C)N(C)C)[C@H](C)/C=C/N(C)C=O`, the outcome in the test with HL-60 [3], with HL-60 [4], in the test on HL-60 [5], in the test with HL-60 [6] and with HL-60 [7] was Active. Moreover, the IC50 in [1] was 21 µM; in the test with HL-60 [2] it was 12.7 µM. Besides, the outcome with HL-60 [8] and in the test with HL-60 [9] was inactive.

On to `COCC(C(=O)O[C@@H]1C/C=C/C=C/C(=O)O[C@H]([C@@H](C)[C@@H](O)[C@@H](C)CC[C@@H](OC(=O)C(C)N(C)C)[C@H](C)[C@H](OC(C)=O)[C@H](C)/C=C/N(C)C=O)C/C=C/[C@H](OC)C[C@H](C)C/C=C(\C)[C@@H](OC)CC[C@@H](C)[C@@H](O)[C@@H]1C)N(C)C` (some centres not stated) [APLYRONINE A], for which the result with HL-60 [10], in the test on HL-60 [11], with HL-60 [12], in the test with HeLa S3 [13], with HL-60 [6] and with HL-60 [18] was Active. Besides, the figures for the IC50 in test [1] and in [16] were 1.6 µM and 0.00029 µM, respectively. Moreover, the result with HeLa S3 [14], in the test on HL-60 [8] and in the test with HL-60 [17] was inactive. Further, the Activity result with HeLa S3 [15] and in the test on HL-60 [7] was “Dose-dependent effect” throughout.

For the molecule `COC[C@@H](OC)C(=O)O[C@H](CC[C@H](C)[C@@H](C[C@@H]1OC(=O)C[C@@H](O)C/C=C/C(=O)[C@H](C)[C@H](OC)c2coc(n2)-c2coc(n2)-c2coc(n2)/C=C/C[C@H](OC)[C@H]1C)OC)[C@H](C)[C@H](OC(C)=O)[C@H](C)/C=C/N(C)C=O` [MYCALOLIDE B], the figures for the IC50 (in test [1]; in test [16]; in the test on HL-60 [2]) were 1.7 µM, 0.052 µM and 0.0047 µM, respectively. Also, the result with HeLa S3 [13] and in the test on HL-60 [6] was Active. In addition, the result in the test with HeLa S3 [14] and in the test on HL-60 [8] was inactive. Moreover, the Activity result in the test on HeLa S3 [15] and with HL-60 [7] was “Dose-dependent effect” in each case.
